Source: PubChem BioAssay AID330 (DTP/NCI, 2004)
Several values for one entry are separate records, joined by “and”; a condition that tells them apart may be missing. Identical values can stand only once. Inconclusive results and toxic doses are left out.

Test system: P388 leukemia ip, CD2F1 mice, survival T/C
Assay: NCI In Vivo Anticancer Drug Screen. Data for tumor model P388 Leukemia (intraperitoneal) in CD2F1 (CDF1) mice
Details: endpoint: median survival time, higher = longer survival
Outline: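 Mice carrying the transplanted tumor received test compound or vehicle. Survival was recorded in each group, and the value is the treated-group measurement divided by that of the vehicle-treated control group.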

[1] = dose: 100.0 mg/kg/injection, schedule: Q01DX001 (ip), vehicle: Klucel (hydroxypropylcellulose) (HPC)
[2] = dose: 200.0 mg/kg/injection, schedule: Q01DX001 (ip), vehicle: Klucel (hydroxypropylcellulose) (HPC)
[3] = dose: 400.0 mg/kg/injection, schedule: Q01DX001 (ip), vehicle: Klucel (hydroxypropylcellulose) (HPC)
[4] = dose: 50.0 mg/kg/injection, schedule: Q01DX009 (ip), vehicle: Klucel (hydroxypropylcellulose) (HPC)
[5] = dose: 100.0 mg/kg/injection, schedule: Q01DX009 (ip), vehicle: Klucel (hydroxypropylcellulose) (HPC)
[6] = dose: 200.0 mg/kg/injection, schedule: Q01DX009 (ip), vehicle: Klucel (hydroxypropylcellulose) (HPC)
[7] = dose: 50.0 mg/kg/injection, schedule: Q01DX005 (ip), vehicle: saline with Tween-80
[8] = dose: 100.0 mg/kg/injection, schedule: Q01DX005 (ip), vehicle: saline with Tween-80
[9] = dose: 50.0 mg/kg/injection, schedule: Q01DX009 (ip), vehicle: saline with Tween-80
[10] = dose: 100.0 mg/kg/injection, schedule: Q01DX009 (ip), vehicle: saline with Tween-80
[11] = dose: 200.0 mg/kg/injection, schedule: Q01DX009 (ip), vehicle: saline with Tween-80
[12] = dose: 100.0 mg/kg/injection, schedule: Q01DX009 (ip), vehicle: saline
[13] = dose: 50.0 mg/kg/injection, schedule: Q01DX001 (ip), vehicle: Klucel (hydroxypropylcellulose) (HPC)

With `C[CH2][Sn]([CH2]C)([O]c1cccccc1=O)[O]c1cccccc1=O` the T/C [1] was 116 % of control, the T/C [2] was 110 % of control and the T/C [3] was 110 % of control.

In the case of `CC(C)(C)[Si](C)(C)OC(=O)Nc1ccc(N(CCCl)CCCl)cc1`, the T/C (dose: 0.05 mg/kg/injection, schedule: Q01DX009 (ip), vehicle: saline with Tween-80) is reported as 122 % of control, the T/C (dose: 0.07 mg/kg/injection, schedule: Q01DX009 (ip), vehicle: saline with Tween-80) is reported as 105 % of control and the T/C (dose: 0.11 mg/kg/injection, schedule: Q01DX009 (ip), vehicle: saline with Tween-80) is reported as 118 % of control. For the same molecule, the T/C (dose: 0.16 mg/kg/injection, schedule: Q01DX009 (ip), vehicle: saline with Tween-80) was 123 % of control, the T/C (dose: 5.0 mg/kg/injection, schedule: Q04DX003 (ip), vehicle: distilled water + Tween-80) was 153 % of control and 165 % of control and the T/C (dose: 10.0 mg/kg/injection, schedule: Q04DX003 (ip), vehicle: distilled water + Tween-80) was 158 % of control and 161 % of control and 203 % of control. The T/C (dose: 40.0 mg/kg/injection, schedule: Q04DX003 (ip), vehicle: distilled water + Tween-80) was 100 % of control, the T/C (dose: 1.5 micrograms/kg/injection, schedule: Q01DX009 (ip), vehicle: saline) was 95 % of control and the T/C (dose: 3.1 micrograms/kg/injection, schedule: Q01DX009 (ip), vehicle: saline) was 97 % of control. The T/C (dose: 6.2 micrograms/kg/injection, schedule: Q01DX009 (ip), vehicle: saline) was 102 % of control, the T/C (dose: 12.5 micrograms/kg/injection, schedule: Q01DX009 (ip), vehicle: saline) was 104 % of control and the T/C (dose: 25.0 micrograms/kg/injection, schedule: Q01DX009 (ip), vehicle: saline) was 94 % of control. The T/C (dose: 50.0 micrograms/kg/injection, schedule: Q01DX009 (ip), vehicle: saline) was 110 % of control.

For `Nc1ccc2ccccc2c1N=Nc1ccccc1`, the T/C [4] was 117 % of control, the T/C [5] was 118 % of control and the T/C [6] was 120 % of control. The T/C (dose: 400.0 mg/kg/injection, schedule: Q01DX009 (ip), vehicle: Klucel (hydroxypropylcellulose) (HPC)) was 117 % of control.

With `CC(=O)NC1c2ccccc2CCC1OC(C)=O` (stereo not drawn) the T/C [7] was 99 % of control, the T/C [8] was 99 % of control and the T/C (dose: 200.0 mg/kg/injection, schedule: Q01DX005 (ip), vehicle: saline with Tween-80) was 99 % of control.

`C=CCn1c(Br)nc2c1c(=O)n(CC)c(=O)n2CC` was tested, and the T/C (dose: 16.0 mg/kg/injection, schedule: Q01DX009 (ip), vehicle: Klucel (hydroxypropylcellulose) (HPC)) was 107 % of control, the T/C (dose: 32.0 mg/kg/injection, schedule: Q01DX009 (ip), vehicle: Klucel (hydroxypropylcellulose) (HPC)) was 107 % of control and the T/C [4] was 89 % of control. The T/C (dose: 64.0 mg/kg/injection, schedule: Q01DX009 (ip), vehicle: Klucel (hydroxypropylcellulose) (HPC)) was 93 % of control, the T/C [5] was 91 % of control and the T/C [6] was 94 % of control.

For `CC(=O)OC(NC(=O)c1cc(C)cc(C)c1)c1ccncc1` (stereo not drawn), the T/C (dose: 50.0 mg/kg/injection, schedule: Q01DX005 (ip), vehicle: Klucel (hydroxypropylcellulose) (HPC)) was 97 % of control and the T/C (dose: 100.0 mg/kg/injection, schedule: Q01DX005 (ip), vehicle: Klucel (hydroxypropylcellulose) (HPC)) was 86 % of control.

In the case of `CC(CC(=O)c1ccccc1)=NCCCCCN=C(C)CC(=O)c1ccccc1`, the T/C [9] is reported as 100 % of control, the T/C [10] is reported as 102 % of control and the T/C [11] is reported as 100 % of control.

In the case of `CC(C)(C)c1ccc2c(c1)C1=NC2=NC2=NC(=NC3=NC(=NC4=NC(=N1)c1ccc(C(C)(C)C)cc14)c1ccc(C(C)(C)C)cc13)c1ccc(C(C)(C)C)cc12`, the T/C [1] is reported as 98 % of control, the T/C [2] is reported as 95 % of control and the T/C [3] is reported as 91 % of control.

For `CC12CCC(=O)C=C1CCC1C2CCC2(C)C(OC(=O)C34C=CC(=O)C3C3C=CC4CC3)CCC12` (stereo not drawn), the T/C (dose: 25.0 mg/kg/injection, schedule: Q01DX005 (ip), vehicle: distilled water + Tween-80) was 95 % of control and the T/C (dose: 50.0 mg/kg/injection, schedule: Q01DX005 (ip), vehicle: distilled water + Tween-80) was 92 % of control.

With `C=C1C(=O)O[C@@H]2C(=O)[C@@H](C)[C@@H]3C=CC(=O)[C@@]3(C)[C@@H](OC(=O)/C(C)=C\C)[C@H]12` the T/C (dose: 2.0 mg/kg/injection, schedule: Q01DX009 (ip), vehicle: saline + alcohol) was 107 % of control, the T/C (dose: 4.0 mg/kg/injection, schedule: Q01DX009 (ip), vehicle: saline + alcohol) was 99 % of control and the T/C (dose: 8.0 mg/kg/injection, schedule: Q01DX009 (ip), vehicle: saline + alcohol) was 109 % of control and 123 % of control. The T/C (dose: 16.0 mg/kg/injection, schedule: Q01DX009 (ip), vehicle: saline + alcohol) was 116 % of control.

With `CCCCCCCC[N+](C)([O-])CCCCCC[N+](C)([O-])CCCCCCCC` (stereo not drawn) the T/C (dose: 50.0 mg/kg/injection, schedule: Q01DX009 (ip), vehicle: saline) was 99 % of control and the T/C [12] was 94 % of control.

For `Cc1ccc(S(=O)CC(O)c2ccccc2)cc1` (stereo not drawn), the T/C [9] was 110 % of control, the T/C [10] was 101 % of control and the T/C [11] was 100 % of control.

In the case of `NC(=S)c1cccc(C2Nc3ccccc3S2)c1` (stereo not drawn), the T/C (dose: 100.0 mg/kg/injection, schedule: Q04DX002 (ip), vehicle: saline with Tween-80) is reported as 94 % of control, the T/C (dose: 200.0 mg/kg/injection, schedule: Q04DX002 (ip), vehicle: saline with Tween-80) is reported as 95 % of control and the T/C (dose: 400.0 mg/kg/injection, schedule: Q04DX002 (ip), vehicle: saline with Tween-80) is reported as 96 % of control.

`C=C1C(=O)OC2/C=C(\C)CC(O)/C=C(\C)CC(OC(=O)C3(CO)OC3C)C12` (stereo not drawn) was tested, and the T/C (dose: 25.0 mg/kg/injection, schedule: Q01DX001 (ip), vehicle: Klucel (hydroxypropylcellulose) (HPC)) was 113 % of control, the T/C [13] was 101 % of control and the T/C [1] was 108 % of control.

`O=C(O)C1CCCCC1c1c2ccc(=O)cc-2oc2cc(O)ccc12` (stereo not drawn) was tested, and the T/C [10] was 90 % of control, the T/C [11] was 95 % of control and the T/C (dose: 400.0 mg/kg/injection, schedule: Q01DX009 (ip), vehicle: saline with Tween-80) was 100 % of control.

In the case of `C1C[N-]CC[N-]CC[N-]CC[N-]1.[Cl][Rh][Cl]`, the T/C (dose: 0.66 mg/kg/injection, schedule: Q01DX009 (ip), vehicle: saline) is reported as 117 % of control, the T/C (dose: 1.0 mg/kg/injection, schedule: Q01DX009 (ip), vehicle: saline) is reported as 115 % of control and the T/C (dose: 1.5 mg/kg/injection, schedule: Q01DX009 (ip), vehicle: saline) is reported as 115 % of control. The T/C (dose: 2.25 mg/kg/injection, schedule: Q01DX009 (ip), vehicle: saline) was 108 % of control, the T/C (dose: 3.13 mg/kg/injection, schedule: Q01DX009 (ip), vehicle: saline) was 121 % of control and the T/C (dose: 6.25 mg/kg/injection, schedule: Q01DX009 (ip), vehicle: saline) was 116 % of control. The T/C (dose: 12.5 mg/kg/injection, schedule: Q01DX009 (ip), vehicle: saline) was 108 % of control.

For `Cc1ccc(C)[nH][nH]c(N)n1`, the T/C (dose: 25.0 mg/kg/injection, schedule: Q01DX009 (ip), vehicle: water) was 99 % of control, the T/C (dose: 50.0 mg/kg/injection, schedule: Q01DX009 (ip), vehicle: water) was 101 % of control and the T/C (dose: 100.0 mg/kg/injection, schedule: Q01DX009 (ip), vehicle: water) was 101 % of control.

For `O=C(c1ccccc1)N1OC2C=CC1C2` (stereo not drawn), the T/C (dose: 12.5 mg/kg/injection, schedule: Q01DX009 (ip), vehicle: saline with Tween-80) was 100 % of control, the T/C (dose: 25.0 mg/kg/injection, schedule: Q01DX009 (ip), vehicle: saline with Tween-80) was 89 % of control and the T/C [9] was 100 % of control and 103 % of control.

With `CCOC(=O)C1=C(C)NC(C)=C(C(=O)OCC)C1C` the T/C [12] was 102 % of control and the T/C (dose: 200.0 mg/kg/injection, schedule: Q01DX009 (ip), vehicle: saline) was 89 % of control.

For `CC1(C)CC2(Nc3ccccc3N2)C2=C(O1)C(=O)OC2`, the T/C (dose: 60.0 mg/kg/injection, schedule: Q01DX005 (ip), vehicle: saline with Tween-80) was 101 % of control, the T/C (dose: 120.0 mg/kg/injection, schedule: Q01DX005 (ip), vehicle: saline with Tween-80) was 103 % of control and the T/C (dose: 240.0 mg/kg/injection, schedule: Q01DX005 (ip), vehicle: saline with Tween-80) was 92 % of control.

`CCN(CC)c1c(C)nnc2c3cccnc3nn12` was tested, and the T/C (dose: 25.0 mg/kg/injection, schedule: Q01DX001 (ip), vehicle: saline with Tween-80) was 100 % of control, the T/C (dose: 50.0 mg/kg/injection, schedule: Q01DX001 (ip), vehicle: saline with Tween-80) was 103 % of control and the T/C (dose: 100.0 mg/kg/injection, schedule: Q01DX001 (ip), vehicle: saline with Tween-80) was 106 % of control and 97 % of control.

With `O=C1C(c2ccccc2)=C(c2ccccc2)/C1=C/c1ccc(F)cc1` the T/C [13] was 112 % of control, the T/C [1] was 106 % of control and the T/C [2] was 118 % of control.

With `O=S1(=O)C(CCCCC2=Cc3ccccc3S2(=O)=O)=Cc2ccccc21` the T/C [7] was 94 % of control and the T/C [8] was 100 % of control.
